Source: patent US7358402B2, “Reduced coenzyme Q10 crystal with excellent stability and composition containing said reduced coenzyme Q10 crystal” (Kaneka Corporation, priority 2003, dated 2008)

Assay: Plasma concentration of reduced coenzyme Q10 after oral administration to rats
Assay type: in vivo
Settings: SD rats, male, oral 30 mg/kg as suspension with rapeseed oil (1:2) in 0.2% Tween 80
Description: Using the reduced coenzyme Q10 obtained in Example 1 and the reduced coenzyme Q10 obtained in Comparative Example 1, the blood concentrations of reduced coenzyme Q10 were measured when they were orally administered to rats. Each samples and rapeseed oil were added to aqueous solution of 0.2% Tween 80 to prepare suspension in which reduced coenzyme Q10:rapeseed oil=1:2. The suspension was orally administered to SD rats (male, 6 rats in one group) forcibly using a stomach sonde in 30 mg (reduced coenzyme Q10)/kg (rat body weight). Thereafter, the blood was sampled with time, and the plasma concentration of reduced coenzyme Q10 was measured by HPLC.

Structure (SMILES) | Tmax, time to maximum plasma concentration (listed as Reduced coenzyme Q10 crystals obtained in Example 1, 30 mg/kg) | Tmax, time to maximum plasma concentration (listed as Reduced coenzyme Q10 crystals obtained in Comparative Example 1, 30 mg/kg)
COc1c(O)c(C)c(C/C=C(\C)CC/C=C(\C)CC/C=C(\C)CC/C=C(\C)CC/C=C(\C)CC/C=C(\C)CC/C=C(\C)CC/C=C(\C)CC/C=C(\C)CCC=C(C)C)c(O)c1OC [Crystals obtained in Example 1, reduced coenzyme Q10] | 4 h | –
COc1c(O)c(C)c(C/C=C(\C)CC/C=C(\C)CC/C=C(\C)CC/C=C(\C)CC/C=C(\C)CC/C=C(\C)CC/C=C(\C)CC/C=C(\C)CC/C=C(\C)CCC=C(C)C)c(O)c1OC [Crystals obtained in Comparative Example 1] [reduced coenzyme Q10] | – | 8 h
